Read-outs that look alike come from different tables or passages of the source.
System: HEP3B tumor xenografts
Type: in vivo
Conditions: for comparative tumor growth efficacy: Hep3B

SMILES	comparative tumor growth efficacy (25, 37.5 or 50 mg/kg i.p. twice daily)	tolerability (health of animals) (30 mg/kg orally twice daily)	tolerability (health of animals) (60 mg/kg orally twice daily, dosing terminated on Day 11)	comparative tumor growth efficacy (60 mg/kg orally twice daily)
C=CC(=O)Nc1cc(N2CCN(CC)CC2)ccc1Nc1cc(N(C)C(=O)Nc2c(Cl)c(OC)cc(OC)c2Cl)ncn1 [Compound 108, N-(2-(6-(3-(2,6-Dichloro-3,5-dimethoxyphenyl)-1-methylureido)pyrimidin-4-ylamino)-5-(4-ethylpiperazin-1-yl)-phenyl)acrylamide]	more efficacious than BGJ398	–	–	–
CCN1CCN(c2ccc(Nc3cc(N(C)C(=O)Nc4c(Cl)c(OC)cc(OC)c4Cl)ncn3)cc2)CC1 [BGJ398]	–	did not exhibit poor health	poor health of animals	efficacy comparable to compound 108
